Assay results: PubChem BioAssay (NCI)
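Exposure lasted 48 hours, with cells grown in 96-well plates and compounds tested at five concentrations. The concentration for full growth arrest is given as TGI.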

Experiments:
Experiment in all cases: inhibition of tumour cell growth, NCI panel, 48 h
786-0 renal = system: 786-0 renal
A498 renal = system: A498 renal
A549 NSCLC = system: A549 NSCLC
ACHN renal = system: ACHN renal
BT-549 breast = system: BT-549 breast
CAKI-1 renal = system: CAKI-1 renal
COLO 205 colon = system: COLO 205 colon
DU-145 prostate = system: DU-145 prostate
EKVX NSCLC = system: EKVX NSCLC
HCT-116 colon = system: HCT-116 colon
HCT-15 colon = system: HCT-15 colon
HL-60(TB) leukemia = system: HL-60(TB) leukemia
HOP-62 NSCLC = system: HOP-62 NSCLC
HOP-92 NSCLC = system: HOP-92 NSCLC
HS 578T breast = system: HS 578T breast
HT29 colon = system: HT29 colon
IGROV1 ovarian = system: IGROV1 ovarian
K-562 leukemia = system: K-562 leukemia
KM12 colon = system: KM12 colon
M14 melanoma = system: M14 melanoma
MALME-3M melanoma = system: MALME-3M melanoma
MCF7 breast = system: MCF7 breast
MDA-MB-231 breast = system: MDA-MB-231 breast
MDA-MB-435 = system: MDA-MB-435
MOLT-4 leukemia = system: MOLT-4 leukemia
NCI-H226 lung = system: NCI-H226 lung
NCI-H23 lung = system: NCI-H23 lung
NCI-H460 lung = system: NCI-H460 lung
NCI-H522 lung = system: NCI-H522 lung
NCI/ADR-RES ovarian = system: NCI/ADR-RES ovarian
OVCAR-3 ovarian = system: OVCAR-3 ovarian
OVCAR-4 ovarian = system: OVCAR-4 ovarian
OVCAR-5 ovarian = system: OVCAR-5 ovarian
OVCAR-8 ovarian = system: OVCAR-8 ovarian
PC-3 prostate = system: PC-3 prostate
RPMI-8226 leukemia = system: RPMI-8226 leukemia
RXF 393 renal = system: RXF 393 renal
SF-268 CNS = system: SF-268 CNS
SF-295 CNS = system: SF-295 CNS
SF-539 CNS = system: SF-539 CNS
SK-MEL-2 melanoma = system: SK-MEL-2 melanoma
SK-MEL-28 melanoma = system: SK-MEL-28 melanoma
SK-MEL-5 melanoma = system: SK-MEL-5 melanoma
SK-OV-3 ovarian = system: SK-OV-3 ovarian
SN12C renal = system: SN12C renal
SNB-19 CNS = system: SNB-19 CNS
SNB-75 CNS = system: SNB-75 CNS
SR leukemia = system: SR leukemia
SW-620 colon = system: SW-620 colon
T-47D breast = system: T-47D breast
TK-10 renal = system: TK-10 renal
U251 CNS = system: U251 CNS
UACC-257 melanoma = system: UACC-257 melanoma
UACC-62 melanoma = system: UACC-62 melanoma
UO-31 renal = system: UO-31 renal
CCRF-CEM leukemia = system: CCRF-CEM leukemia
HCC-2998 colon = system: HCC-2998 colon
LOX IMVI melanoma = system: LOX IMVI melanoma

CC(C)(OCc1ccccc1)c1ccccc1P(c1ccccc1)c1ccccc1
TGI (786-0 renal): > 100 µM
TGI (A498 renal): > 100 µM
TGI (A549 NSCLC): > 100 µM
TGI (ACHN renal): > 100 µM
TGI (BT-549 breast): > 100 µM
TGI (CAKI-1 renal): > 100 µM
TGI (COLO 205 colon): > 100 µM
TGI (DU-145 prostate): > 100 µM
TGI (EKVX NSCLC): 91.2 µM
TGI (HCT-116 colon): > 100 µM
TGI (HCT-15 colon): > 100 µM
TGI (HL-60(TB) leukemia): 62.9 µM
TGI (HOP-62 NSCLC): > 100 µM
TGI (HOP-92 NSCLC): > 100 µM
TGI (HS 578T breast): > 100 µM
TGI (HT29 colon): > 100 µM
TGI (IGROV1 ovarian): > 100 µM
TGI (K-562 leukemia): > 100 µM
TGI (KM12 colon): 58 µM
TGI (M14 melanoma): > 100 µM
TGI (MALME-3M melanoma): > 100 µM
TGI (MCF7 breast): > 100 µM
TGI (MDA-MB-231 breast): > 100 µM
TGI (MDA-MB-435): > 100 µM
TGI (MOLT-4 leukemia): 84.5 µM
TGI (NCI-H226 lung): > 100 µM
TGI (NCI-H23 lung): 94 µM
TGI (NCI-H460 lung): > 100 µM
TGI (NCI-H522 lung): > 100 µM
TGI (NCI/ADR-RES ovarian): > 100 µM
TGI (OVCAR-3 ovarian): > 100 µM
TGI (OVCAR-4 ovarian): > 100 µM
TGI (OVCAR-5 ovarian): > 100 µM
TGI (OVCAR-8 ovarian): > 100 µM
TGI (PC-3 prostate): > 100 µM
TGI (RPMI-8226 leukemia): 22.8 µM
TGI (RXF 393 renal): > 100 µM
TGI (SF-268 CNS): > 100 µM
TGI (SF-295 CNS): > 100 µM
TGI (SF-539 CNS): > 100 µM
TGI (SK-MEL-2 melanoma): > 100 µM
TGI (SK-MEL-28 melanoma): > 100 µM
TGI (SK-MEL-5 melanoma): > 100 µM
TGI (SK-OV-3 ovarian): > 100 µM
TGI (SN12C renal): > 100 µM
TGI (SNB-19 CNS): > 100 µM
TGI (SNB-75 CNS): > 100 µM
TGI (SR leukemia): > 100 µM
TGI (SW-620 colon): > 100 µM
TGI (T-47D breast): > 100 µM
TGI (TK-10 renal): > 100 µM
TGI (U251 CNS): > 100 µM
TGI (UACC-257 melanoma): > 100 µM
TGI (UACC-62 melanoma): > 100 µM
TGI (UO-31 renal): > 100 µM

NC(=O)c1c2c(n3ccccc13)C(=O)c1ccccc1C2=O
TGI (786-0 renal): > 100 µM
TGI (A498 renal): > 100 µM
TGI (ACHN renal): > 100 µM
TGI (BT-549 breast): > 100 µM
TGI (CAKI-1 renal): > 100 µM
TGI (CCRF-CEM leukemia): > 100 µM
TGI (COLO 205 colon): > 100 µM
TGI (DU-145 prostate): > 100 µM
TGI (EKVX NSCLC): > 100 µM
TGI (HCC-2998 colon): > 100 µM
TGI (HCT-116 colon): > 100 µM
TGI (HCT-15 colon): > 100 µM
TGI (HL-60(TB) leukemia): > 100 µM
TGI (HOP-62 NSCLC): > 100 µM
TGI (HOP-92 NSCLC): > 100 µM
TGI (HS 578T breast): > 100 µM
TGI (HT29 colon): > 100 µM
TGI (IGROV1 ovarian): > 100 µM
TGI (K-562 leukemia): > 100 µM
TGI (KM12 colon): > 100 µM
TGI (LOX IMVI melanoma): > 100 µM
TGI (M14 melanoma): > 100 µM
TGI (MCF7 breast): > 100 µM
TGI (MDA-MB-231 breast): 93 µM
TGI (MDA-MB-435): 44 µM
TGI (MOLT-4 leukemia): > 100 µM
TGI (NCI-H226 lung): > 100 µM
TGI (NCI-H23 lung): 36.4 µM
TGI (NCI-H460 lung): 82.5 µM
TGI (NCI/ADR-RES ovarian): > 100 µM
TGI (OVCAR-4 ovarian): > 100 µM
TGI (OVCAR-8 ovarian): > 100 µM
TGI (PC-3 prostate): > 100 µM
TGI (RPMI-8226 leukemia): > 100 µM
TGI (RXF 393 renal): > 100 µM
TGI (SF-268 CNS): > 100 µM
TGI (SF-295 CNS): > 100 µM
TGI (SF-539 CNS): > 100 µM
TGI (SK-MEL-2 melanoma): > 100 µM
TGI (SK-MEL-28 melanoma): > 100 µM
TGI (SK-MEL-5 melanoma): 37 µM
TGI (SK-OV-3 ovarian): > 100 µM
TGI (SNB-19 CNS): > 100 µM
TGI (SNB-75 CNS): > 100 µM
TGI (SR leukemia): > 100 µM
TGI (SW-620 colon): > 100 µM
TGI (T-47D breast): > 100 µM
TGI (TK-10 renal): > 100 µM
TGI (U251 CNS): > 100 µM
TGI (UACC-257 melanoma): > 100 µM
TGI (UACC-62 melanoma): > 100 µM
TGI (UO-31 renal): > 100 µM
